# Test results from patent publication US9855277B2, “Use of 5H-dibenz/b,f/azepine-5-carboxamide derivatives for treating fibromyalgia” (BIAL—PORTELA & CA, S.A., priority 2009, dated 2018).
# Key:
# [1] = tested on: mice with chronic constriction nerve injury (CCI); assay: Paw withdrawal threshold (von Frey filaments) in CCI mice; assay type: in vivo
# Procedure: The materials used were (as also indicated in FIGS. 1 and 2): • Vehicle: 0.5% hydroxy-propyl-methyl-cellulose (HPMC) in water, 5 ml/kg, p.o.; • 50 mg/kg, 100 mg/kg, 150 mg/kg and 200 mg/kg: ESL at 50, 100, 150 and 200 mg/kg, p.o.; • GP 100 mg/kg: gabapentin 100 mg/kg, p.o.
# The potential analgesic effects of orally dosed ESL was investigated at doses of 50, 100, 150 and 200 mg/kg, on the paw withdrawal threshold (PWT) and these effects compared with those of the dose vehicle and gabapentin, the latter at 100 mg/kg, in a mouse model of chronic constriction nerve injury (CCI).
# Each animal received a single oral dose of either ESL (50, 100, 150, or 200 mg/kg), or gabapentin (100 mg/kg in saline) or vehicle (5 ml/kg). Behavioural testing was then performed twice, at approximately 60 and 120 minutes post-dose, to investigate the effect of treatments.
# [2] = Plasma bioanalysis in CCI mice after oral ESL; assay type: in vivo; details: oral ESL
# Mice (NMRI) = assay: Formalin paw test; assay type: in vivo; details: 300 mg/kg p.o.
# Procedure: The method, which detects analgesic activity, follows that described by Wheeler-Aceto et al (see […]-ACETO, H. & A., C. (1991), “Standardization of the rat paw formalin test for the evaluation of analgesics”, Psychopharmacology, 104, 35-44). Mice (NMRI) were given an intraplantar injection of 5% formalin (25 μl) into the posterior left paw. […] The time spent licking was counted for 15 minutes, beginning 15 minutes after injection of formalin. 10 mice were studied per group. The test was performed blind. ESL and carbamazepine (CBZ) were tested at the doses of 10, 30, 100 and 300 mg/kg p.o., and oxcarbazepine (OXC) and R-Lic were tested at the doses of 100 and 300 mg/kg p.o., administered 60 minutes before the test (i.e. 45 minutes before formalin), and compared with a vehicle control group in each experiment. Morphine (64 mg/kg p.o.), administered under the same experimental conditions, was used as reference substance.
# [3] = tested on: patients with partial epilepsy; assay: MADRS, open label extension of phase 3 study, Trial 1; assay type: in vivo, human
# Procedure: (§1) During an open label extension of a phase 3 study with ESL, the effect on depressive symptoms in patients taking at least one other anti-epileptic drug was assessed using the Montgomery Åsberg Depression Rating Scale (MADRS) at the end of treatment (after one year or after early discontinuation) and results compared with those at baseline. Patients were treated with ESL dosages in the range of 400-1500 mg, the majority being treated once daily with 800 mg ESL.
# [4] = tested on: patients with partial epilepsy; assay: MADRS, open label extension of phase 3 study, Trial 2; assay type: in vivo, human
# Procedure: as §1, with “During a further” for “During an”
# [5] = long-term open-label adjunctive therapy, partial epilepsy
smiles,measurement,setting,value
"CC(=O)O[C@H]1Cc2ccccc2N(C(N)=O)c2ccccc21 [ESL, S-(−)-10-acetoxy-10,11-dihydro-5H-dibenz/b,f/azepine-5-carboxamide]",PWT in the contralateral limbs vs vehicle group,"[1]; 50 mg/kg group on 14th to 16th day, P<0.05",significantly higher
same,potency and efficacy compared with reference compound,"[1]; CCI mice, PWT","potency and efficacy similar to the reference compound, gabapentin"
same,PWT in the ipsilateral hindpaw,"[1]; ESL 50, 100, 150, 200 mg/kg p.o., single dose, tested about 60 and 120 min post-dose",dose-dependently increased the PWT
same,PWT in the contralateral side,"[1]; ESL 50-200 mg/kg p.o., vs vehicle",did not significantly affect the PWT
same,duration of the effect on PWT after dosing,"[1]; ESL p.o., ipsilateral hindpaw",more than 2 hours
same,main metabolite in plasma,[2],mainly to eslicarbazepine
same,time to complete metabolism after administration (plasma),[2],≤ 1 h
same,licking in the formalin test at 300 mg/kg,Mice (NMRI),abolished licking
same,MADRS total score at end of treatment,"[3]; ITT population (166 patients), baseline 10.5, ESL 400-1500 mg, mostly 800 mg once daily, one year or early discontinuation, p<0.05",7.8
same,"depressive symptoms (MADRS), change from baseline",[3]; [5],Statistically and clinically significant improvement from baseline
same,"MADRS apparent sadness, mean relative improvement",[4]; ITT population (264 patients),34%
same,"MADRS concentration difficulties, mean relative improvement",[4]; ITT population (264 patients),30%
same,"MADRS inability to feel, mean relative improvement",[4]; ITT population (264 patients),38%
same,"MADRS inner tension, mean relative improvement",[4]; ITT population (264 patients),31%
same,"MADRS lassitude, mean relative improvement",[4]; ITT population (264 patients),38%
same,"MADRS pessimistic thoughts, mean relative improvement",[4]; ITT population (264 patients),26%
same,"MADRS reduced appetite, mean relative improvement",[4]; ITT population (264 patients),57%
same,"MADRS reduced sleep, mean relative improvement",[4]; ITT population (264 patients),48%
same,"MADRS reported sadness, mean relative improvement",[4]; ITT population (264 patients),40%
same,"MADRS suicidal thoughts, mean relative improvement",[4]; ITT population (264 patients),56%
same,"MADRS apparent sadness, mean relative improvement",[4]; PP population (232 patients),38%
same,"MADRS concentration difficulties, mean relative improvement",[4]; PP population (232 patients),33%
same,"MADRS inability to feel, mean relative improvement",[4]; PP population (232 patients),35%
same,"MADRS inner tension, mean relative improvement",[4]; PP population (232 patients),34%
same,"MADRS lassitude, mean relative improvement",[4]; PP population (232 patients),39%
same,"MADRS pessimistic thoughts, mean relative improvement",[4]; PP population (232 patients),31%
same,"MADRS reduced appetite, mean relative improvement",[4]; PP population (232 patients),62%
same,"MADRS reduced sleep, mean relative improvement",[4]; PP population (232 patients),53%
same,"MADRS reported sadness, mean relative improvement",[4]; PP population (232 patients),41%
same,"MADRS suicidal thoughts, mean relative improvement",[4]; PP population (232 patients),60%
same,"depressive mood as assessed by MADRS, change from baseline",[4]; [5],statistically significant improvement from baseline
